Entries after “also recorded” stand apart in the source; their conditions may differ. Read-outs that look alike come from different tables or passages of the source.
What was measured:
Rsk2 [1] = target: T1, Rsk2 (Homo sapiens, UniProt P51812, Y707A); assay: Rsk kinase ELISA with immobilized substrate and phosphospecific antibodies; assay type: biochemical
T1 construct: His; made in house; host or cells: Sf9 (baculovirus, Bac-to-Bac)

[2] = target: T2, Focal Adhesion Kinase (FAK) (Homo sapiens, UniProt Q05397); assay: FAK tyrosine kinase ELISA; assay type: biochemical; conditions: purified compounds
T2 construct: the catalytic domain of the tyrosine kinase, Focal Adhesion Kinase (FAK); His; made in house; host or cells: Sf9 (baculovirus, Bac-to-Bac)

protein kinase A (PKA) = target: T3, protein kinase A (PKA) (Homo sapiens, UniProt P17612); assay: PKA kinase ELISA; assay type: biochemical; conditions: purified compounds
T3 construct: made in house; host or cells: bacteria
Experimental: (§1) Kinase Assays. Glutathione-S-transferase (GST)-fusion protein (1 g) containing the sequence -[…] (SEQ ID NO: 3, for serine/threonine kinase assays) or -[…] (SEQ ID NO: 4, for tyrosine kinase assays) was adsorbed in the wells of LumiNunc 96-well polystyrene plates (MaxiSorp surface treatment). The wells were blocked with sterile 3% tryptone in phosphate buffered saline and stored at 4° C. for up to 6 months. Kinase (5 nM) in 70 μl of kinase buffer (5 mM -glycerophosphate pH 7.4, 25 mM HEPES pH 7.4, 1.5 mM DTT, 30 mM MgCl2, 0.15 M NaCl) was dispensed into each well. Compound at indicated concentrations or vehicle was added, and reactions were initiated by the addition of 30 μl of ATP for a final ATP concentration of 10 μM unless indicated otherwise. Reactions were terminated after 10 to 45 min by addition of 75 μl of 500 mM EDTA, pH 7.5. All assays measured the initial velocity of reaction. After extensive washing of wells, polyclonal phosphospecific antibody developed against the phosphopeptide and HRP-conjugated anti-rabbit antibody (211-035-109, Jackson ImmunoResearch Laboratories) were used to detect serine phosphorylation of the substrate. HRP-conjugated anti-phospho-tyrosine antibody (RC20, BD Transduction Laboratories) was used for phospho-tyrosine detection. His-tagged active Rsk and FAK were expressed in Sf9 cells and purified using NiNTA resin (Qiagen). Baculovirus was prepared using the Bac-to-Bac® baculovirus expression system (Invitrogen). PKA was bacterially expressed and activated as described (Anal. Biochem. 245, 115-122 (1997)). Active Msk1 and p70 S6 kinase was purchased from Upstate Biotechnology. Immunoprecipitation and kinase assays were performed as previously described (Poteet-Smith et al., J. Biol. Chem, 274, 22135-22138 (1999) using the immobilized GST-fusion proteins and ELISAs as above.

p70 S6K = target: T4, p70 S6K (Homo sapiens, UniProt P23443); assay: p70 S6K kinase ELISA; assay type: biochemical; conditions: purified compounds
T4 construct: purchased Upstate Biotechnology
Experimental: as §1

Msk1 = target: T5, Msk1 (Homo sapiens, UniProt O75582); assay: Msk1 kinase ELISA; assay type: biochemical; conditions: purified compounds
T5 construct: purchased Upstate Biotechnology
Experimental: as §1

Rsk2 [3] = target: Rsk2 (Homo sapiens, UniProt P51812); assay: Kinase assay of immunoprecipitated HA-tagged Rsk2 from EGF-stimulated BHK21 cells; assay type: biochemical; conditions: 2 μM
Rsk2(1-389) = target: T6, Rsk2(1-389) (Homo sapiens, UniProt P51812); assay: Kinase assay of immunoprecipitated HA-tagged Rsk2 amino-terminal kinase domain; assay type: biochemical; conditions: 2 μM
T6 construct: a truncation mutant of Rsk2 containing only the NTKD (Rsk2(1-389)); expressed in transfected cells; host or cells: BHK21, EGF-stimulated; anti-HA immunoprecipitate

Rsk1 = target: T7, Rsk1 (Homo sapiens, UniProt Q15418); assay: Kinase assay of immunoprecipitated HA-tagged Rsk1; assay type: biochemical; conditions: 2 μM
T7 construct: expressed in transfected cells; host or cells: BHK21, transiently transfected, EGF-stimulated; anti-HA immunoprecipitate
Source text: (§2) To determine whether the unique adenosine-interacting loop is sufficient for SL0101-1 specificity, the isozyme specificity of SL0101-1 was examined. The primary structure of the NTKDs of the Rsk isoforms 1-3 are highly related, sharing 87% identity and each contain the unique adenosine-interacting loop. HA-tagged proteins were immunoprecipitated from the lysates of EGF-stimulated BHK21 cells transiently transfected with the indicated HA-tagged constructs (Rsk1, Rsk2 and Rsk3). Assays were performed as described immediately above.
(§3) Kinase Assays. Glutathione-S-transferase (GST)-fusion protein (1 g) containing the sequence -[…] (SEQ ID NO: 3, for serine/threonine kinase assays) or -[…] (SEQ ID NO: 4, for tyrosine kinase assays) was adsorbed in the wells of LumiNunc 96-well polystyrene plates (MaxiSorp surface treatment). The wells were blocked with sterile 3% tryptone in phosphate buffered saline and stored at 4° C. for up to 6 months. Kinase (5 nM) in 70 μl of kinase buffer (5 mM -glycerophosphate pH 7.4, 25 mM HEPES pH 7.4, 1.5 mM DTT, 30 mM MgCl2, 0.15 M NaCl) was dispensed into each well. Compound at indicated concentrations or vehicle was added, and reactions were initiated by the addition of 30 μl of ATP for a final ATP concentration of 10 μM unless indicated otherwise. […] All assays measured the initial velocity of reaction. […]

Rsk3 = target: T8, Rsk3 (Homo sapiens, UniProt Q15349); assay: Kinase assay of immunoprecipitated HA-tagged Rsk3; assay type: biochemical; conditions: 2 μM
T8 construct: expressed in transfected cells; host or cells: BHK21, transiently transfected, EGF-stimulated; anti-HA immunoprecipitate
Source text: as §2, §3

[4] = test system: Ha-ras-transformed NIH/3T3 cells; assay: Proliferation of transformed cells (CellTiter-Glo); assay type: cell-based
Experimental: (§4) Cells were treated with vehicle, 50 μM SL0101, or 50 μM PD 98059 (PD 98059 is a MEK-specific inhibitor). Proliferation was measured using Promega CellTiter-Glo™ Luminescent cell viability assay.
(§5) Cell Culture. For proliferation studies cells were seeded at 2500 to 5000 cells per well in 96 well tissue culture plates in the appropriate medium as described by American Type Culture Collection. After 24 hr, the medium was replaced with medium containing compound or vehicle as indicated. Cell viability was measured at indicated time points using CellTiter-Glo™ assay reagent (Promega) according to manufacturer's protocol. For in vivo inhibition studies, cells were seeded at 2.5×10^5 cells/well in 12 well cell culture clusters. After 24 hr, the cells were serum starved for 24 hr then incubated with compound or vehicle for 3 hr prior to a 30 min PDB stimulation. Cells were lysed as previously described (J. Biol. Chem. 273, 13317-13323 (1998)). The lysates were normalized for total protein, electrophoresed and immunoblotted. For cell imaging, Ha-Ras-transformed NIH/3T3 cells were seeded on LABTEK II chamber slides (Nalge) at a density of 1×10^4 cells/well. After 24 hr, fresh medium was added the indicated compounds or vehicle. Images were taken 48 hr after treatment at a magnification of 20×.

parental NIH/3T3 cells = assay: Proliferation of parental cells (CellTiter-Glo); assay type: cell-based; conditions: 50 μM, compared to vehicle
Experimental: as §4, §5

MCF-7 cells = assay type: cell-based
Experimental: (§6) Cell viability was measured at indicated time points. Proliferation assays were conducted using CellTiter-Glo Luminescent Cell Viability Assay (Promega), performed 44 hrs after treatment for FIGS. 8A &B and at indicated points for FIG. 8C. The data are expressed relative to time 0.
as §5

MCF-10A cells = assay: Proliferation of MCF-10A cells (CellTiter-Glo); assay type: cell-based
Experimental: as §6, §5

LNCaP cells = assay: Proliferation of LNCaP cells (CellTiter-Glo); assay type: cell-based, human; conditions: 50 μM, 44 hrs after treatment
Experimental: as §6, §5

[5] = test system: p140 phosphorylation in MCF-7 cells; assay: PDB-induced p140 phosphorylation in MCF-7 cells (immunoblot); assay type: cell-based, human; conditions: 100 μM, 3 hr pre-incubation, 500 nM PDB 30 min
Experimental: (§7) Cells were treated with 500 nM PDB for 30 min prior to lysis. Protein concentration of lysates was measured and lysates were electrophoresed, transferred and immunoblotted.
as §5

[6] = test system: p140 phosphorylation in MCF-10A cells; assay: PDB-induced p140 phosphorylation in MCF-10A cells (immunoblot); assay type: cell-based; conditions: 3 hr pre-incubation, 500 nM PDB 30 min
Experimental: as §7, §5

MAPK, MEK, Raf and PKC = assay: Upstream MAPK pathway kinases in PDB-stimulated cells (Rsk mobility shift, anti-active MAPK); assay type: cell-based, human
Experimental: Specific inhibition of Rsk in situ was determined by incubation of MCF-7 cells in the presence or absence of increasing concentrations of extract fraction enriched in SL0101 prior to stimulation of the MAPK pathway with phorbol dibutyrate (PDB). […] Thus, SL0101 is a Rsk-specific inhibitor in situ as well as in vitro and can be used as an investigative tool for defining the function of Rsk in situ.
as §7, §5

[7] = test system: p140 phosphorylation in LNCaP cells; assay: p140 phosphorylation in LNCaP line (anti-RPM antibody); assay type: cell-based, human; conditions: efficacy paralleled inhibition of LNCaP proliferation
Experimental: The ability of SL1011-1 to inhibit the proliferation of the androgen-dependent human prostate line, LNCaP was tested. […] To investigate the Rsk signal transduction pathway in the LNCaP line, a phosphospecific antibody to a Rsk phosphorylation motif (RPM) was produced. Only a few downstream effectors of Rsk have been identified and therefore, applicants anticipated that an anti-RPM antibody would be a very effective tool for identifying novel Rsk substrates in vivo. An anti-RPM antibody has previously been reported that recognizes the Rsk substrate, p140, a protein of unknown function. […] All lysates were normalized to each other using an anti-Ran antibody. Ran is used for normalization based on the observations that it is a general housekeeping protein, the activity or expression levels of which are not known to vary in any disease state.

T1 sequence (P51812 whole entry Y707A): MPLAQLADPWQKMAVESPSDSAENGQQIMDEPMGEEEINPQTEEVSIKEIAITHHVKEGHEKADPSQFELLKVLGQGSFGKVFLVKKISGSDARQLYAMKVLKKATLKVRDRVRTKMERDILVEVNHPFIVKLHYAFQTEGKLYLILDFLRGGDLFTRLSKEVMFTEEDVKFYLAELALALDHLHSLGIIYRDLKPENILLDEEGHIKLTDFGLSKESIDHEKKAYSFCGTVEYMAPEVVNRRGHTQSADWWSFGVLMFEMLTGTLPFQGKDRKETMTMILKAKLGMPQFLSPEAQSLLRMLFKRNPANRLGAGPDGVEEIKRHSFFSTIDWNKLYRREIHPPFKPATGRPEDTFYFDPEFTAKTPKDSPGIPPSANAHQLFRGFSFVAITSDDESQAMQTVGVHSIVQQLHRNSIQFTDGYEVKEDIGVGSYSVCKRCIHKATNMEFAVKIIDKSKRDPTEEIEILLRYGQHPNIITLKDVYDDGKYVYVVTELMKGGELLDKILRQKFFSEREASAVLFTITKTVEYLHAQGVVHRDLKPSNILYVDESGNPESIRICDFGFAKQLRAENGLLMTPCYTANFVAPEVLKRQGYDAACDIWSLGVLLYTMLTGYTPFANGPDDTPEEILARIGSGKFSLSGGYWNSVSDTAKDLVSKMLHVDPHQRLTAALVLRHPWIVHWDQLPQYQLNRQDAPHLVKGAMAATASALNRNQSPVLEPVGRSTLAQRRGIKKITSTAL
T2 sequence (Q05397 422-680 limits assumed, species assumed): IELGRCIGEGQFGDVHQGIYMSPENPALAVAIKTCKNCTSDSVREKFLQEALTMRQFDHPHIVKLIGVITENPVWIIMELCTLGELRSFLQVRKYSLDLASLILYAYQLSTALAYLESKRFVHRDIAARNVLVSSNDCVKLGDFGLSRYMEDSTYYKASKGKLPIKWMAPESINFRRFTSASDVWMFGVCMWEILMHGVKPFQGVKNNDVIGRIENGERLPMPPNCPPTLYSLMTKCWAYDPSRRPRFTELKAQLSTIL
T5 sequence (O75582 whole entry, species assumed): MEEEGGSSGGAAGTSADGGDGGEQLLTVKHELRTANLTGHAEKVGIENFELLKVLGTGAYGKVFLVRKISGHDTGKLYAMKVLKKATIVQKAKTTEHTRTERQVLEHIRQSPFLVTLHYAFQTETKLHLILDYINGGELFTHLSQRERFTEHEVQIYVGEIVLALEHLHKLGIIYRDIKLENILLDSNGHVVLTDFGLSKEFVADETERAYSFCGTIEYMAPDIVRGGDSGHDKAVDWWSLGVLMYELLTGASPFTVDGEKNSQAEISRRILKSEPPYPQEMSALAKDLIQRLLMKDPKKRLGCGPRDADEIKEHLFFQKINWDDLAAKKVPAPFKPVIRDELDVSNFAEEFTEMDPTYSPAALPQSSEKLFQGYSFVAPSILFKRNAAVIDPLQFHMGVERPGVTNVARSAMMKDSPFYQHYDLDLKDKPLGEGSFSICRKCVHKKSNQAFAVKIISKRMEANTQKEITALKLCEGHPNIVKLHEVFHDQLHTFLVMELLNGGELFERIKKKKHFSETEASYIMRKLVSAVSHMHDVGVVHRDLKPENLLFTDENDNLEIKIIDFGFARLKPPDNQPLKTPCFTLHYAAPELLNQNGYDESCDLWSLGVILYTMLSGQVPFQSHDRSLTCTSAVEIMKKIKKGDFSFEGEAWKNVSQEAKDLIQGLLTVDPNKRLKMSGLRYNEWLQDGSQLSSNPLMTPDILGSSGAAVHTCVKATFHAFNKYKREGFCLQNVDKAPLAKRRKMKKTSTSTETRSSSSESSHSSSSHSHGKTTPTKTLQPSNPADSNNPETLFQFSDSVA
T6 sequence (P51812 1-389): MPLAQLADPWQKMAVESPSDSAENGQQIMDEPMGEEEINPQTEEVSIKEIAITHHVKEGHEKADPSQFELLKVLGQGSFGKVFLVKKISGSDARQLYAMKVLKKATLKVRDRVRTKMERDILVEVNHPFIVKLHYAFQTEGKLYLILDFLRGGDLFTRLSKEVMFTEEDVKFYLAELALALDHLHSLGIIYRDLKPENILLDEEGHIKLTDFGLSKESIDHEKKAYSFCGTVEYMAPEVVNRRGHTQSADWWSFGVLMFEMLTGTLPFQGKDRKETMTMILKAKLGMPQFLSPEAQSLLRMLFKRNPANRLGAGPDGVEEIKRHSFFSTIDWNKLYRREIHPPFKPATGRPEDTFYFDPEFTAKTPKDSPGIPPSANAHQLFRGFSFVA
T4 sequence (P23443 24-525): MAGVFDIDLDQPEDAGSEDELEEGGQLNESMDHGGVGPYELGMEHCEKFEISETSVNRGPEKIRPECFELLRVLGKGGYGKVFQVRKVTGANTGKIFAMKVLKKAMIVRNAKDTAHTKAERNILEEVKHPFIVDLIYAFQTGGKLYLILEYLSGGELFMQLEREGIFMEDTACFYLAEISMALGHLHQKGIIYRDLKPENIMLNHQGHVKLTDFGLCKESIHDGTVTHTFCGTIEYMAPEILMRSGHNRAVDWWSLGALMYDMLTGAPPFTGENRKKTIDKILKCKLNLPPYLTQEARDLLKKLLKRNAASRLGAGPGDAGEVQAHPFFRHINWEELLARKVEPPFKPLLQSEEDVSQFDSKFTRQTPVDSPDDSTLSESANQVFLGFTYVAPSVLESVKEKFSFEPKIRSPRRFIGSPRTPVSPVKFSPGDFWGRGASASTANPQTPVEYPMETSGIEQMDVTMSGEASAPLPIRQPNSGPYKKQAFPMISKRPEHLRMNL
Sequence of Rsk2 (Homo sapiens, UniProt P51812) (P51812 whole entry, the tested form may be a part): as the sequence (P51812 whole entry Y707A) above, with A707Y counted along it
T8 sequence (Q15349 whole entry): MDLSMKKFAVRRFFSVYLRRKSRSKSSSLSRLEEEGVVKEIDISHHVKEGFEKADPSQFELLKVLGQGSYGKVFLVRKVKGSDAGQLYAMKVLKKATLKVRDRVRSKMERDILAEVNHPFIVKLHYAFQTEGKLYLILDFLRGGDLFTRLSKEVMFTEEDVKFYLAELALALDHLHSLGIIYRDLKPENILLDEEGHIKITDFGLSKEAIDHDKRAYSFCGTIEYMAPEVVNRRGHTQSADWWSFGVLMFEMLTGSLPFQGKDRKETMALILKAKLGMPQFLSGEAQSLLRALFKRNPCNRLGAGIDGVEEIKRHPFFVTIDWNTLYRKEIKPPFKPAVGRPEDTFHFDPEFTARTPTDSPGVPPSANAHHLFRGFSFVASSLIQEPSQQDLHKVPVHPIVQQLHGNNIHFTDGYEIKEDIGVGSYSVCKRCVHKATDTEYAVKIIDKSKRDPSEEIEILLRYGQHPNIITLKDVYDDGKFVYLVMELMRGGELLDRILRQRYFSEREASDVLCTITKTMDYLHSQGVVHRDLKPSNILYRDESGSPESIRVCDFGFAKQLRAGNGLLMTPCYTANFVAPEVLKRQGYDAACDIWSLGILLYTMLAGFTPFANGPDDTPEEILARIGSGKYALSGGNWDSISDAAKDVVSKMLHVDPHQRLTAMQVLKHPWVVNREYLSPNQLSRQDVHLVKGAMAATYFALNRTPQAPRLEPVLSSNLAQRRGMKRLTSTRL
T7 sequence (Q15418 whole entry): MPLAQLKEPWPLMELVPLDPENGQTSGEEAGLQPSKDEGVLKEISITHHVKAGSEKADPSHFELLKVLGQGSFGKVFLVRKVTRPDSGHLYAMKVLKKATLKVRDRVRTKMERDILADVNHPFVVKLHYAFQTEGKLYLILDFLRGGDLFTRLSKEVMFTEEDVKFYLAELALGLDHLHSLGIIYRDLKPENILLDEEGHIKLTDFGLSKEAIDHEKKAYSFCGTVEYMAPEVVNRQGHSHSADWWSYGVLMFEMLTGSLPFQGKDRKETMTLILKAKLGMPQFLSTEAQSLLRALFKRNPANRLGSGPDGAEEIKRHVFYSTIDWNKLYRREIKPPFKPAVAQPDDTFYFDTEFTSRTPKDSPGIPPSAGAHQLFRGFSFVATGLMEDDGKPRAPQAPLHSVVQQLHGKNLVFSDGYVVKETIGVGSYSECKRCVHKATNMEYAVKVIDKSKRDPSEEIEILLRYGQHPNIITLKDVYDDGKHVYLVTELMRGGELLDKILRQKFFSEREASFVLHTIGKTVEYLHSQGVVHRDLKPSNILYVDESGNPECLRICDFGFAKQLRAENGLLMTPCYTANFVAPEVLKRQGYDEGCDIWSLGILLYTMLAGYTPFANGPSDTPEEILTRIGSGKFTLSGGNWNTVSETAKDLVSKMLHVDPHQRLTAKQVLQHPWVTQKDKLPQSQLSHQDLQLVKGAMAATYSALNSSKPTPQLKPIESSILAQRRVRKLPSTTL

With `CC(=O)OC1C(C)OC(Oc2c(-c3ccc(O)cc3)oc3cc(O)cc(O)c3c2=O)C(O)C1OC(C)=O` [SL0101-1, kaempferol 3-α-L-(3″,4″-diacetyl) rhamnopyranoside] the “specificity for Rsk compared to p70 S6K and Msk1” value (Rsk2 [1]; 5 μM inhibitor, 5 nM purified kinases, 30 mins, 10 μM ATP) was “specific for inhibition of Rsk activity; also recorded: specifically inhibits”, the “mechanism of Rsk inhibition” value (Rsk2 [1]; with respect to ATP) was “competitive with respect to ATP” and the “inhibition of FAK” value [2] was “do not inhibit”. The “inhibition of Protein Kinase A” value (protein kinase A (PKA)) was “do not inhibit”, the “inhibition of p70 S6 kinase” value (p70 S6K) was “do not inhibit” and the “inhibition of MSK” value (Msk1) was “do not inhibit”. The Rsk2 activity (Rsk2 [3]) was “potently reduced”, the “inhibition of isolated Rsk2 NTKD” value (Rsk2(1-389)) was “potently inhibited; also recorded: inhibits activity” and the Rsk1 activity (Rsk1) was “potently reduced”. The Rsk3 activity (Rsk3) was “only partially inhibited”, the “reversibility of inhibition of cell proliferation (washout)” value ([4]; 50 μM for 48 hr, then medium replaced, viability 48 hr later) was “resulted in growth of the transformed cells; also recorded: reversible” and the “proliferation of Ha-ras-transformed NIH/3T3 cells” value ([4]; 50 μM, 48 hour time course, 10% fetal calf serum) was “decreased the growth rate; also recorded: halts proliferation; also recorded: inhibits; also recorded: inhibited the proliferation”. For the same compound, the “toxicity to intact cells” value ([4]; Ha-Ras transformed and parental NIH/3T3 cells) was “not toxic”, the “morphology of transformed cells” value ([4]; images 48 hr after treatment) was “striking morphology changes” and the “proliferation of parental NIH/3T3 cells” value (parental NIH/3T3 cells) was “little effect; also recorded: little influence; also recorded: not the parental cells”. For the same compound, the “cell death of MCF-7 cells” value (MCF-7 cells; 50 μM) was “did not cause cell death”, the “MCF-7 cell viability compared to vehicle control” value (MCF-7 cells; 50 μM in serum-free medium (serum deprivation)) was “significantly reduced cell viability” and the “proliferation of MCF-7 cells” value (MCF-7 cells; 50 μM, 44 hrs after treatment) was “inhibited proliferation; also recorded: inhibits the proliferation”. The “growth of MCF-10A cells” value (MCF-10A cells; 50 μM, 44 hrs after treatment) was “no effect; also recorded: without preventing the proliferation”, the “proliferation of LNCaP cells” value (LNCaP cells) was “completely inhibit” and the “PDB-induced p140 phosphorylation” value [5] was “abrogates”. For the same compound, the “PDB-induced p140 phosphorylation in MCF-10A cells” value [6] was “prevented”, the “activation of MAPK (anti-active MAPK antibody)” value (MAPK, MEK, Raf and PKC) was “does not effect” and the “inhibition of upstream kinases PKC, Raf, MEK, MAPK in cells” value (MAPK, MEK, Raf and PKC) was “does not inhibit”. The “phosphorylation of Rsk by MAPK (reduced electrophoretic mobility)” value (MAPK, MEK, Raf and PKC) was “does not effect” and the “phosphorylation of p140” value [7] was “decrease the phosphorylation”.
With `CC(=O)OC1C(C)OC(Oc2c(-c3ccc(O)cc3)oc3cc(O)cc(O)c3c2=O)C(OC(C)=O)C1O` [SL0101-2, kaempferol 3-α-L-(2″,4″-diacetyl) rhamnopyranoside] the IC50 (Rsk2 [1]; in vitro, increasing concentrations of compound, read-out: IC50 for Rsk catalytic activity) was 0.58 µM, the “inhibition of FAK” value [2] was “do not inhibit” and the “inhibition of Protein Kinase A” value (protein kinase A (PKA)) was “do not inhibit”. For the same compound, the “inhibition of p70 S6 kinase” value (p70 S6K) was “do not inhibit” and the “inhibition of MSK” value (Msk1) was “do not inhibit”.
`O=c1c(O)c(-c2ccc(O)cc2)oc2cc(O)cc(O)c12` [kaempferol, reference compound] was tested, and the IC50 (Rsk2 [1]; in vitro kinase assay with immobilized substrate, read-out: IC50 for Rsk) was 15 µM, the “growth of MCF-7 cells” value (MCF-7 cells; concentration not given, same extent as MCF-10A) was “slows growth” and the “growth of MCF-10A cells” value (MCF-10A cells; concentration not given, same extent as MCF-7) was “slows growth”.
